This is an account of results in US10179770B2, “Quinolines derivatives as novel anticancer agents” (GENOSCIENCE PHARMA, priority 2013, dated 2019).

Assay [1] deals with HCT-116. Briefly: EC50 determination in cancer cell lines. As to conditions: Homo sapiens, HCT-116, 72 h. It counts as cell-based, human. The method, then: (§1) Compounds were added at different concentrations to each well, and cell cultures were incubated for 72 h. Vehicle (DMSO or H2O) was used as a control, and all compounds were tested in a constant percentage of vehicle. Cell outgrowth was measured using for adherent cells CellTiter […] Aqueous One Solution Cell Proliferation Assay (Promega) and for cell suspension, Sulforhodamine B colorimetric assay as described in Vichai et al. (Vichai, V. and Kirtikara, K. Nat. Protoc. 2006 (1) 1112-1116). Absorbance was measured using an Infinite F200 Pro or Sunrise TECAN plate reader.
(§2) The human melanoma cell line A375, colorectal carcinoma cell line HCT-116, hepatocellular carcinoma cell line HepG2 were cultured in Dulbecco's modified Eagle's medium supplemented with 10% fetal bovine serum and 1% Penicillin-Streptomycin. The human melanoma cell lines SK-MEL-28 and SK-MEL-5 were cultured in Minimum Essential Medium. The colorectal carcinoma cell lines HT-29 and Colo205 were respectively cultured in Mc Coy's and RPMI media. The human leukemia cell lines MV4-11 and KG-1 were cultured in Iscove's Modified Dulbecco's Media. The human leukemia cell line MOLM-14 was cultured in Minimum Essential Medium Alpha Medium supplemented with 10% Fetal Bovine Serum and 1% Penicillin-Streptomycin All culture media were supplemented with 10% fetal bovine serum and 1% Penicillin-Streptomycin except for MV4-11 cell line 20% fetal bovine serum and 1% Penicillin-Streptomycin. All the cell lines were maintained at 37° C. with 5% C02.
Briefly, adherent cells, A375, HCT-116, HepG2, SK-MEL-28, SK-MEL-5, HT-29 and Colo205 cells were respectively plated at 800, 5,000, 7,000, 2,500, 3,000-5,000, 5,000 or 5,000 cells per well onto 96-well plates in 90 μL of media per well and were allowed to grow overnight before the assay. For MV4-11 and KG-1 cells that grow in suspension, 40,000-60,000 cells were plated onto 96-well plates immediately before the assay. MOLM-14 cell line, that grow in suspension, 30,000 cells were plated onto 96-well plates immediately before the assay. […]
(§3) The experimental data are analyzed using a computer program, Graphpad Prism (GraphPad Software, Inc. La Jolla, Calif.) and EC50 values were determined as the dose of compound required to reduce absorbance values to 50% of the signal obtained for vehicle treated cell cultures and were a mean of at least two independent experiments except for EC50 values with (*) where […].

In assay [2] the test system is PBMC Healthy voluntary donor. Briefly: Cell growth inhibition assay, PBMC of healthy donors. It counts as cell-based, human. The conditions noted are these: Homo sapiens, PBMC. The method, then: Each compound was added at different concentrations (combinations of six concentrations) to each well, and cell cultures were incubated for 48 h. Vehicle (H2O) was used as a control, and all compounds were tested in a constant percentage of vehicle. Cell outgrowth was measured using the CellTiter-Glo luminescent cell viability assay as described by the manufacturer (Promega, Ref G7571 Madison, Wis., USA) using a Centro (Berthold, France) plate reader. In each experiment, each point represents the average of triplicates in cell culture. The experimental data are analyzed using a computer program, Graphpad Prism (GraphPad Software, Inc.

The subject of assay [3] is MV4-11. Briefly: EC50 determination in cancer cell lines. The conditions noted are these: Homo sapiens, 72 h. The format is cell-based. The method, then: as §1, §2
(§4) Briefly, adherent cells, A375, HCT-116, HepG2, SK-MEL-28, SK-MEL-5, HT-29 and Colo205 cells were respectively plated at 800, 5,000, 7,000, 2,500, 3,000-5,000, 5,000 or 5,000 cells per well onto 96-well plates in 90 μL of media per well and were allowed to grow overnight before the assay. For MV4-11 and KG-1 cells that grow in suspension, 40,000-60,000 cells were plated onto 96-well plates immediately before the assay. MOLM-14 cell line, that grow in suspension, 30,000 cells were plated onto 96-well plates immediately before the assay.
(§5) The cell growth measure was the same as described in example 51.
as §3

For assay [4], the system named is MOLM-14. Briefly: EC50 determination in cancer cell lines. The format is cell-based. The conditions noted are these: Homo sapiens, 72 h. The method, then: as §1, §2, §4, §5, §3
Assay [5] concerns SK-MEL-28. Briefly: EC50 determination in cancer cell lines. The format is cell-based. The conditions noted are these: Homo sapiens, 72 h. As for the experimental part:
as §1, §2, §4, §5, §3

The subject of assay [6] is HT-29. Briefly: EC50 determination in cancer cell lines. The format is cell-based. The conditions noted are these: Homo sapiens, 72 h, * n>2. The method, then:
as §1, §2, §4, §5, §3

For assay [7], the system named is SK-MEL-5. Nature of the assay: EC50 determination in cancer cell lines. It counts as cell-based. The conditions noted are these: Homo sapiens, 72 h. The method, then: as §1, §2, §4, §5, §3
In assay [8] the test system is KG-1. Nature of the assay: EC50 determination in cancer cell lines. The format is cell-based. The conditions noted are these: Homo sapiens, 72 h. As for the experimental part:
as §1, §2, §4, §5, §3

For assay [9], the system named is HepG2. Nature of the assay: EC50 determination in cancer cell lines. The format is cell-based, human. As to conditions: Homo sapiens, HepG2, 72 h. The method, then: as §1, §2, §4, §5, §3
Assay [10] has as its system A-375. Briefly: EC50 determination in cancer cell lines. The format is cell-based, human. The conditions noted are these: Homo sapiens, A-375, 72 h. As for the experimental part: as §1, §2, §4, §5, §3
Assay [11] relates to A375. Briefly: Cell proliferation assay at 10 μM. The format is cell-based, human. The conditions noted are these: Homo sapiens, A-375, 72 h, read-out: Cell viability observed at 10 μM. An outline of the steps:
(§6)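 A375 and HCT-116 cells grown in DMEM with 10% FBS, seeded overnight, then exposed to compound at 10 μM for 72 h at 37 °C, 5% CO2 against vehicle control. Outgrowth read by MTS (CellTiter 96 Aqueous One) absorbance; each point the mean of two replicates.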

For assay [12], the system named is HCT-116. Briefly: Cell proliferation assay at 10 μM. The format is cell-based. The conditions noted are these: Homo sapiens, HCT-116, 72 h, read-out: Cell viability observed at 10 μM. An outline of the steps: as §6
For assay [13], the system named is MOLM-14. Nature of the assay: Cell proliferation assay at 10 μM. It counts as cell-based, human. As to conditions: Homo sapiens, MOLM-14, 72 h, read-out: Cell viability observed at 10 μM. In a few lines: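 MOLM-14 suspension cells (30,000/well, MEM alpha with 10% FBS) treated with compound at 10 μM, constant vehicle percentage, for 72 h at 37° C. Outgrowth measured by sulforhodamine B absorbance; each point is mean of two replicates.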

Take `CCN(CC)C1CCN(C(C)c2cc(-c3ccc4ccccc4c3)nc3ccccc23)CC1.Cl.Cl` (stereo not shown) [XXIV-3, 2-(2-naphtyl)-4-{1-[4-(N,N-diethylamino)-piperidin-1-yl]-eth-1-yl}quinoline dihydrochloride]: the EC50 stood at 4 µM in assay [1]; 8 µM in [2] (PBMC Healthy voluntary donor 1); 7 µM in assay [2] (PBMC Healthy voluntary donor 2); 3 µM in assay [3]; 4 µM in [4]; 3 µM in assay [5]. Further, the EC50 in assay [6] is 7 µM; in assay [7] it was 3 µM; in [8] it was 4 µM; in assay [9], 11 µM; in assay [10], 3 µM. The viability at 10 µM in assay [11], in [12] and in assay [13] was below 20% throughout.

`CCN(CC)C1CCN(C(C)c2cc(-c3ccccc3)nc3ccccc23)CC1.Cl.Cl` (stereo not shown) [XIX-3, 2-phenyl-4-{1-[4-(N,N-diethylamino)piperidin-1-yl]-eth-1-yl}quinoline dihydrochloride]: the EC50 in [1] is 12 µM; in [2] (PBMC Healthy voluntary donor 2), 21 µM; in [3], 9 µM; in assay [4] it was 11 µM; in assay [5], 6 µM; in assay [6], 18 µM. In addition, the EC50 in assay [7] was determined as 6 µM; in [8], 14 µM; in assay [9] it was 22 µM; in [10] it was 9 µM. The viability at 10 µM was below 20% in assay [11], 20 to 40% in assay [12] and 20 to 40% in assay [13].

Consider `CC(C)(C)NC1CCN(c2cc(-c3ccc(Cl)cc3)nc3ccccc23)CC1.Cl.Cl` [XII-4, 2-(4-chloro-phenyl)-4-(4-N-tert-butylamino-piperidin-1-yl)quinoline dihydrochloride], for which the EC50 in assay [2] (PBMC Healthy voluntary donor 1) stood at 43 µM; in [2] (PBMC Healthy voluntary donor 2) it was 15 µM; in [3], 2 µM; in [4] it was 3 µM; in assay [5], 3 µM; in [7] it was 5 µM. For the same molecule, the EC50 in assay [8] came to 4 µM; in [10], 5 µM. The viability at 10 µM in assay [11], in [12] and in assay [13] was below 20% in each case.

In the case of `Cc1ccc(-c2cc(N3CCC(NC(C)(C)C)CC3)c3ccccc3n2)cc1.Cl.Cl` [XIII-8, 2-(4-methyl-phenyl)-4-(4-N-tert-butylamino-piperidin-1-yl)quinoline dihydrochloride], the EC50 in assay [1] was determined as 8 µM; in [2] (PBMC Healthy voluntary donor 1), 42 µM; in assay [2] (PBMC Healthy voluntary donor 2), 16 µM; in assay [3], 2 µM; in assay [4], 3 µM; in assay [5], 5 µM. For the same molecule, the EC50 in [6] stood at 16 µM; in assay [7], 7 µM; in assay [8], 9 µM; in assay [9] it was 17 µM; in assay [10], 6 µM. The viability at 10 µM in [11], in assay [12] and in assay [13] was below 20% in each case.
